This note sets out measurements from ChEMBL document CHEMBL1147724, “Synthesis and in vitro antileukemic activity of some new 1,3-(oxytetraethylenoxy)cyclotriphosphazene derivatives” (2006).

≈ marks a conversion by molar mass, not a printed value. Calls of active or inactive are those of the source. The rule behind the calls is not given here.

What all share (assay type): functional
Assay [1] relates to MOLT-4. The assay is described as follows: Antiproliferative activity against human MOLT4 cell line by MTT assay at 4 ug/ml. As to conditions: for IC50: read-out: ID50 (the source's name). For orientation: Formazan colour is commonly taken as a measure of viable cells.
In assay [2] the test system is P388. The assay is described as follows: Antiproliferative activity against mouse P388 cell line by MTT assay at 4 ug/ml. As to conditions: for IC50: read-out: ID50 (the source's name).
Assay [3] has as its system BALB/3T3. The assay is described as follows: Antiproliferative activity against BALB/3T3 cell line by MTT assay at 4 ug/ml. As to conditions: Mus musculus; for IC50: read-out: ID50 (the source's name).
Assay [4] deals with L1210. The assay is described as follows: Antiproliferative activity against mouse L1210 cell line by MTT assay at 4 ug/ml. As to conditions: for IC50: read-out: ID50 (the source's name).
Assay [5] relates to HL-60. The assay is described as follows: Antiproliferative activity against human HL60 cell line by MTT assay at 4 ug/ml. As to conditions: for IC50: read-out: ID50 (the source's name).

Regarding `O=C1c2ccccc2C(=O)c2c(NCCNP34=NP(Oc5ccccc5/C=N\CCCl)(=NP(Oc5ccccc5/C=N\CCCl)(Oc5ccccc5/C=N\CCCl)=N3)OCCOCCOCCOCCO4)cccc21` (stereo not given), the IC50 worked out at 3.08 µg/mL (≈ 2.7 µM) in assay [1]; 2.16 µg/mL (≈ 1.89 µM) in assay [2]; 9.54 µg/mL (≈ 8.37 µM) in assay [3]; 2.69 µg/mL (≈ 2.36 µM) in assay [4]; 2.07 µg/mL (≈ 1.81 µM) in assay [5].

On to `O=Cc1ccccc1OP12=NP(Oc3ccccc3C=O)(Oc3ccccc3C=O)=NP(Oc3ccc4ccccc4c3)(=N1)OCCOCCOCCOCCO2` (stereo not given), for which the IC50 in assay [1] came to 3.09 µg/mL (≈ 3.71 µM); in assay [2], 2.55 µg/mL (≈ 3.06 µM); in assay [4], 2.75 µg/mL (≈ 3.3 µM); in assay [5], 2.81 µg/mL (≈ 3.37 µM). Moreover, the ID50 entry in assay [3] was “inactive”.

Turning to `O=C1c2ccccc2C(=O)c2c(NCCNP34=NP(NCCCl)(=NP(NCCCl)(NCCCl)=N3)OCCOCCOCCOCCO4)cccc21` (stereo not given), the IC50 in assay [1] came to 27.2 µg/mL (≈ 32.8 µM); in assay [2], 19.4 µg/mL (≈ 23.4 µM); in assay [4] it was 29.3 µg/mL (≈ 35.4 µM); in assay [5] it was 18.9 µg/mL (≈ 22.8 µM). For the same compound, the ID50 result in assay [3] is “inactive”.

Regarding `O=Cc1ccccc1OP12=NP(Oc3ccccc3C=O)(Oc3ccccc3C=O)=NP(NCCNc3cccc4c3C(=O)c3ccccc3C4=O)(=N1)OCCOCCOCCOCCO2` (stereo not given), the IC50 in assay [1] turned out to be 1.14 µg/mL (≈ 1.19 µM); in assay [2], 2.9 µg/mL (≈ 3.03 µM); in assay [3], 33.2 µg/mL (≈ 34.7 µM); in assay [4], 2.42 µg/mL (≈ 2.53 µM); in assay [5], 2.23 µg/mL (≈ 2.33 µM).

As to `O=C1c2ccccc2C(=O)c2c(NCCNP34=NP(Cl)(=NP(Cl)(Cl)=N3)OCCOCCOCCOCCO4)cccc21` (stereo not given), the IC50 was 29.6 µg/mL (≈ 42.4 µM) in assay [1], 32.8 µg/mL (≈ 46.9 µM) in assay [2], 52.8 µg/mL (≈ 75.6 µM) in assay [4] and 38.3 µg/mL (≈ 54.8 µM) in assay [5]. In addition, the ID50 entry in assay [3] was “inactive”.

For `ClCC/N=C\c1ccccc1OP12=NP(Oc3ccccc3/C=N\CCCl)(=NP(Oc3ccccc3/C=N\CCCl)(Oc3ccccc3/C=N\CCCl)=N1)OCCOCCOCCOCCO2` (stereo not given), the IC50 came to 2.1 µg/mL (≈ 1.99 µM) in assay [1]; 3.2 µg/mL (≈ 3.03 µM) in assay [2]; 25.3 µg/mL (≈ 23.9 µM) in assay [3]; 3.2 µg/mL (≈ 3.03 µM) in assay [4]; 2.9 µg/mL (≈ 2.74 µM) in assay [5].

`O=Cc1ccccc1OP12=NP(Oc3ccccc3C=O)(=NP(Oc3ccccc3C=O)(Oc3ccccc3C=O)=N1)OCCOCCOCCOCCO2` (stereo not given): the IC50 in assay [1] came to 3.2 µg/mL (≈ 3.94 µM); in assay [2], 3.2 µg/mL (≈ 3.94 µM); in assay [3], 12.1 µg/mL (≈ 14.9 µM); in assay [4] it was 3.2 µg/mL (≈ 3.94 µM); in assay [5], 2.7 µg/mL (≈ 3.33 µM).

`ClCCNP1(NCCCl)=NP2(NCCCl)=NP(NCCCl)(=N1)OCCOCCOCCOCCO2` (stereo not given): the ID50 entry in assay [1], in assay [2], in assay [3], in assay [4] and in assay [5] was “inactive” throughout.

With `ClCC/N=C\c1ccccc1OP12=NP(Oc3ccccc3/C=N\CCCl)(Oc3ccccc3/C=N\CCCl)=NP(Oc3ccc4ccccc4c3)(=N1)OCCOCCOCCOCCO2` (stereo not given), the IC50 in assay [1] was found to be 3.11 µg/mL (≈ 3.05 µM); in assay [2], 2.7 µg/mL (≈ 2.65 µM); in assay [4] it was 2.43 µg/mL (≈ 2.39 µM); in assay [5], 2.89 µg/mL (≈ 2.84 µM). Moreover, the ID50 entry in assay [3] was “inactive”.
